Test results published in patent US5618795A, “Dibekacin derivatives and arbekacin derivatives active against resistant bacteria, and the production thereof” (Zaidan Hojin Biseibutsu Kagaku Kenkyu Kai, priority 1992, dated 1997).
Values after ≈ are worked out from the molar mass of the structure shown. Read-outs that look alike come from different tables or passages of the source.

Legend:
[1] = test system: clinically isolated strains of MRSA; experiment: Antibacterial MIC spectra against 50 clinically isolated strains of MRSA; type: cell-based, methicillin-resistant Staphylococcus aureus; details: Staphylococcus aureus; for MIC: read-out: Antibacterial MIC spectra; for MIC50: 50% of the 50 MRSA strains inhibited, read-out: MIC50; for MIC90: 90% of the 50 MRSA strains inhibited, read-out: MIC90
Protocol: (§1) Minimum growth inhibitory concentrations (MIC) of each of 2"-amino-2"-deoxyarbekacin (Compound Ia), 2"-amino-5,2"-dideoxyarbekacin (Compound Ib), 2"-amino-2"-deoxydibekacin (Compound IIa) and 2"-amino-5,2"-dideoxydibekacin (Compound IIb) against various bacteria (20 strains) and against clinically isolated strains of MRSA (50 strains) were determined by standard serial dilution method on Muller-Hinton's agar medium (as estimated after cultivating at 27° C. for 18 hours), and the test results obtained are shown in TABLE 3 and TABLE 4, respectively.
Note:- MIC50 or MIC90 represents the concentration of tested
active compound at which 50% or 90% of the total numbers of the bacterial
strains tested were inhibited from their growth. DKB denotes dibekacin,
(§2) Minimum growth inhibitory concentrations (MIC) of each of 2"-amino-5,2"-dideoxy-5-epi-fluoroarbekacin (Compound XVIa) and 2"-amino-5,2"-dideoxy-5-epi-aminoarbekacin (Compound XVIb) against various bacteria (18 strains) and against clinically isolated strains of MRSA (50 strains) were determined by standard serial dilution method on Muller-Hinton's agar medium (as estimated after cultivation at 27° C. for 18 hours), and the test results obtained are shown in TABLE 5 and TABLE 6, respectively.

Salmonella typhi T-63 = experiment: MIC by standard serial dilution method on Muller-Hinton's agar; type: cell-based; details: Salmonella enterica, 18 hours
Protocol: as §1, §2

[2] = test system: Klebsiella pneumoniae PCI602; experiment: as above; type: cell-based; details: 18 hours, read-out: MIC
Protocol: as §1, §2

S. aureus Smith = experiment: as above; type: cell-based; details: Staphylococcus aureus, 27° C., 18 hours
Protocol: as §1, §2

[3] = test system: Shigella dysenteriae JSI1910; experiment: as above; type: cell-based; details: JSI1910, 18 h
Protocol: as §1, §2

[4] = test system: Providencia rettgeri GN311; experiment: as above; type: cell-based; details: 18 hours, read-out: MIC
Protocol: as §1, §2

E. coli K-12 ML1629 = experiment: as above; type: cell-based; details: Escherichia coli
Protocol: as §1, §2

[5] = test system: Staphylococcus aureus FDA209P; experiment: as above; type: cell-based; details: 18 hours
Protocol: as §1, §2

S. epidermidis 109 = experiment: as above; type: cell-based; details: Staphylococcus epidermidis, 109, 27° C., 18 hours, read-out: MIC
Protocol: as §1, §2

E. coli K-12 LA290 R55 = experiment: as above; type: cell-based; details: Escherichia coli, K12LA290R55, 18 h
Protocol: as §1, §2

E. coli JR66/W677 = experiment: as above; type: cell-based; details: Escherichia coli, JR66/W677, 18 h
Protocol: as §1, §2

Proteus vulgaris OX19 = experiment: as above; type: cell-based; details: 18 hours, read-out: MIC
Protocol: as §1, §2

Serratia marcescens = experiment: as above; type: cell-based
Protocol: as §1, §2

P. aeruginosa PST1 = experiment: as above; type: cell-based; details: Pseudomonas aeruginosa, 18 hours
Protocol: as §1, §2

Escherichia coli NIHJ = experiment: as above; type: cell-based; details: 18 hours
Protocol: as §1, §2

Bacillus subtilis PCI219 = experiment: as above; type: cell-based; details: 18 hours
Protocol: as §1, §2

P. aeruginosa TI-13 = experiment: as above; type: cell-based; details: Pseudomonas aeruginosa
Protocol: as §1, §2

P. aeruginosa H9 = experiment: as above; type: cell-based; details: Pseudomonas aeruginosa
Protocol: as §1, §2

[6] = test system: Pseudomonas aeruginosa A3; experiment: as above; type: cell-based; details: 18 hours, read-out: MIC
Protocol: as §1, §2

B. cereus ATCC10702 = experiment: as above; type: cell-based; details: Bacillus cereus, ATCC10702, 18 h
Protocol: as §1

E. coli K-12 ML1410 = experiment: as above; type: cell-based; details: Escherichia coli, K12ML1410; Table 3; 27° C., 18 hours
Protocol: as §1

[7] = Acute toxicity, single intravenous administration to mice; type: in vivo; details: mouse, in vivo; single intravenous administration; mice (ICR-strain, 4 weeks old, female); observations for two weeks; read-out: LD50
Source text: 50% Lethal dosages (LD50, observations for two weeks) of the new compounds of this invention as estimated upon single intravenous administration to mice (ICR-strain, 4 weeks old, female) are as follows:
50% Lethal dosages (LD50, observations for two weeks) of the new compounds of general formula (XVI) according to the seventh aspect of this invention as estimated upon single intravenous administration to mice (ICR-strain, 4 weeks old, female) are as follows: […]

Solubility in water = type: physicochemical
[8] = TI13, Table 5, 27° C., 18 hours, read-out: MIC

Structure (SMILES) | MIC ([1]; MRSA, 18 h) [µg/mL] | MIC50 ([1]; 27° C., 18 hours) [µg/mL] | MIC90 ([1]; 27° C., 18 hours) [µg/mL] | MIC [3] [µg/mL] | MIC (E. coli K-12 LA290 R55) [µg/mL] | MIC (E. coli JR66/W677) [µg/mL] | MIC (Serratia marcescens; 18 h) [µg/mL] | LD50 at 336 h [7] [mg/kg] | Solubility (Solubility in water) | MIC (Salmonella typhi T-63; Table 5, 27° C.) [µg/mL] | MIC ([2]; PCI602, Table 5, 27° C.) [µg/mL] | MIC (S. aureus Smith; Table 5) [µg/mL] | MIC ([4]; GN311, Table 5, 27° C.) [µg/mL] | MIC (E. coli K-12 ML1629; K12ML1629, 18 h) [µg/mL] | MIC ([5]; Table 5, 27° C.) [µg/mL] | MIC (S. epidermidis 109; Table 5) [µg/mL] | MIC (Proteus vulgaris OX19; OX19, Table 5, 27° C.) [µg/mL] | MIC (P. aeruginosa PST1; Table 5, 27° C.) [µg/mL] | MIC (Escherichia coli NIHJ; Table 5, 27° C.) [µg/mL] | MIC (Bacillus subtilis PCI219; Table 5, 27° C.) [µg/mL] | other results
NCC[C@H](O)C(=O)N[C@@H]1C[C@H](N)[C@@H](O[C@H]2O[C@H](CN)CC[C@H]2N)[C@H](O)[C@H]1O[C@H]1O[C@H](CO)[C@@H](O)[C@H](N)[C@H]1N [Compound Ia, 2"-Amino-2"-deoxyarbekacin] | 0.2 to 3.13 (≈ 0.363 to 5.67 µM) | 0.78 (≈ 1.41 µM) | 1.56 (≈ 2.83 µM) | 3.13 (≈ 5.67 µM) | 0.78 (≈ 1.41 µM) | 3.13 (≈ 5.67 µM) | 3.13 (≈ 5.67 µM) | > 100 | easily soluble in water | – | – | – | – | – | – | – | – | – | – | – | MIC (Salmonella typhi T-63; Table 3, 27° C.): 0.78 µg/mL (≈ 1.41 µM); MIC ([2]; PCI602, Table 3, 27° C.): 1.56 µg/mL (≈ 2.83 µM); MIC (S. aureus Smith; Table 3): ≤ 0.2 µg/mL; MIC ([4]; GN311, Table 3, 27° C.): 1.56 µg/mL (≈ 2.83 µM); MIC (E. coli K-12 ML1629; K12ML1629, Table 3, 27° C., 18 hours, read-out: MIC): 3.13 µg/mL (≈ 5.67 µM); MIC ([5]; Table 3, 27° C.): 0.39 µg/mL (≈ 0.707 µM); MIC (S. epidermidis 109; Table 3): 0.78 µg/mL (≈ 1.41 µM); MIC (Proteus vulgaris OX19; OX19, Table 3, 27° C.): 1.56 µg/mL (≈ 2.83 µM); MIC (P. aeruginosa PST1; Table 3, 27° C.): 12.5 µg/mL (≈ 22.7 µM); MIC (Escherichia coli NIHJ; Table 3, 27° C.): 0.78 µg/mL (≈ 1.41 µM); MIC (Bacillus subtilis PCI219; Table 3, 27° C.): 0.2 µg/mL (≈ 0.363 µM); MIC (P. aeruginosa TI-13; TI13, 18 h): 3.13 µg/mL (≈ 5.67 µM); MIC (P. aeruginosa H9; H9, Table 3, 27° C., 18 hours, read-out: MIC): 6.25 µg/mL (≈ 11.3 µM); MIC ([6]; A3, Table 3, 27° C.): 1.56 µg/mL (≈ 2.83 µM); MIC (B. cereus ATCC10702): 3.13 µg/mL (≈ 5.67 µM); MIC (E. coli K-12 ML1410): 1.56 µg/mL (≈ 2.83 µM)
NCC[C@H](O)C(=O)N[C@@H]1C[C@H](N)[C@@H](O[C@H]2O[C@H](CN)CC[C@H]2N)[C@@H](F)[C@H]1O[C@H]1O[C@H](CO)[C@@H](O)[C@H](N)[C@H]1N [Compound XVIa, 2"-Amino-5,2"-dideoxy-5-epi-fluoroarbekacin] | 0.39 to 3.13 (≈ 0.704 to 5.65 µM) | 0.78 (≈ 1.41 µM) | 1.56 (≈ 2.82 µM) | 3.13 (≈ 5.65 µM) | 1.56 (≈ 2.82 µM) | 3.13 (≈ 5.65 µM) | – | > 100 | easily soluble in water | 0.78 (≈ 1.41 µM) | 1.56 (≈ 2.82 µM) | ≤ 0.2 | 1.56 (≈ 2.82 µM) | 3.13 (≈ 5.65 µM) | 0.78 (≈ 1.41 µM) | 0.78 (≈ 1.41 µM) | 1.56 (≈ 2.82 µM) | 12.5 (≈ 22.6 µM) | 0.78 (≈ 1.41 µM) | 0.39 (≈ 0.704 µM) | MIC (Serratia marcescens; Table 5, 27° C., 18 hours, read-out: MIC): 1.56 µg/mL (≈ 2.82 µM); MIC (P. aeruginosa TI-13; [8]): 1.56 µg/mL (≈ 2.82 µM); MIC (P. aeruginosa H9; H9, 18 h): 3.13 µg/mL (≈ 5.65 µM); MIC ([6]; A3, Table 5, 27° C.): 0.78 µg/mL (≈ 1.41 µM)
NCC[C@H](O)C(=O)N[C@@H]1C[C@H](N)[C@@H](O[C@H]2O[C@H](CN)CC[C@H]2N)[C@@H](N)[C@H]1O[C@H]1O[C@H](CO)[C@@H](O)[C@H](N)[C@H]1N [Compound XVIb, 2"-amino-5,2"-dideoxy-5-epi-aminoarbekacin] | – | 0.78 (≈ 1.42 µM) | 1.56 (≈ 2.83 µM) | 3.13 (≈ 5.68 µM) | 1.56 (≈ 2.83 µM) | 3.13 (≈ 5.68 µM) | 3.13 (≈ 5.68 µM) | > 100 | easily soluble in water | 0.78 (≈ 1.42 µM) | 1.56 (≈ 2.83 µM) | ≤ 0.2 | 1.56 (≈ 2.83 µM) | 1.56 (≈ 2.83 µM) | ≤ 0.2 | 0.39 (≈ 0.708 µM) | 1.56 (≈ 2.83 µM) | 6.25 (≈ 11.4 µM) | 0.78 (≈ 1.42 µM) | ≤ 0.2 | MIC ([1]; range over 50 clinically isolated strains of MRSA, 27° C., 18 hours): 0.39 to 1.56 µg/mL (≈ 0.708 to 2.83 µM); MIC (P. aeruginosa TI-13; [8]): 1.56 µg/mL (≈ 2.83 µM); MIC (P. aeruginosa H9; H9, 18 h): 3.13 µg/mL (≈ 5.68 µM); MIC ([6]; A3, Table 5, 27° C.): 0.39 µg/mL (≈ 0.708 µM)
NC[C@@H]1CC[C@@H](N)[C@@H](O[C@H]2[C@H](O)[C@@H](O[C@H]3O[C@H](CO)[C@@H](O)[C@H](N)[C@H]3O)[C@H](N)C[C@@H]2N)O1 [DKB, 3',4'-dideoxykanamycin B, reference compound] | – | 50 (≈ 111 µM) | > 100 | – | – | – | – | – | – | – | – | – | – | – | – | – | – | – | – | – | –
